Reference: PubChem BioAssay AID1963968 (Molecular Pharmacology Branch, DTP, NCI, 2024)

Test system: 945468-187-T-J3-PDC spheroids with HUVEC/MSC, viability
Experiment: Anticancer human tumor 945468-187-T-J3-PDC patient-derived rectal carcinoma cell line growth inhibition [PI3K]
Details: for IC50: curve of first compound; for viability, T/C: stronger effect = lower value; active = viability on the fitted dose curve at most 10% of control; inactive = the rest
Summary of the method: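 Targeted small molecules plus PI3K inhibitors, half-log dose series from Cmax (default top 10 microM), were applied to heterotypic spheroids of cancer cells with HUVEC and MSCs. Viability indicated growth inhibition.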
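Also: spheroids exposed to agents for 7 days before viability read.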
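For viability, T/C in this document: 100% = DMSO vehicle control viability.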

CCN1CCN(Cc2ccc(Nc3ncc(F)c(-c4cc(F)c5nc(C)n(C(C)C)c5c4)n3)nc2)CC1 + Cc1nc(NC(=O)N2CCCC2C(N)=O)sc1-c1ccnc(C(C)(C)C(F)(F)F)c1
735 nM: IC50 (second compound 1 µM)
299 nM: IC50 (second compound 3.16 µM)
35.5 nM: IC50 (second compound 10 µM)
inactive: viability, T/C (second compound 0.0316 µM, first compound 0.00316 µM) 83.5% | viability, T/C (second compound 0.0316 µM, first compound 0.01 µM) 103% | viability, T/C (second compound 0.0316 µM, first compound 0.0316 µM) 95.6% | viability, T/C (second compound 0.0316 µM, first compound 0.1 µM) 105% | viability, T/C (second compound 0.0316 µM, first compound 0.316 µM) 115% | viability, T/C (second compound 0.0316 µM, first compound 1 µM) 105% | viability, T/C (second compound 0.1 µM, first compound 0.00316 µM) 87.8% | viability, T/C (second compound 0.1 µM, first compound 0.01 µM) 97.9% | viability, T/C (second compound 0.1 µM, first compound 0.0316 µM) 107% | viability, T/C (second compound 0.1 µM, first compound 0.1 µM) 103% | viability, T/C (second compound 0.1 µM, first compound 0.316 µM) 121% | viability, T/C (second compound 0.1 µM, first compound 1 µM) 102% | viability, T/C (second compound 0.316 µM, first compound 0.00316 µM) 97% | viability, T/C (second compound 0.316 µM, first compound 0.01 µM) 96.2% | viability, T/C (second compound 0.316 µM, first compound 0.0316 µM) 95.6% | viability, T/C (second compound 0.316 µM, first compound 0.1 µM) 107% | viability, T/C (second compound 0.316 µM, first compound 0.316 µM) 113% | viability, T/C (second compound 0.316 µM, first compound 1 µM) 53.5% | viability, T/C (second compound 1 µM, first compound 0.00316 µM) 102% | viability, T/C (second compound 1 µM, first compound 0.01 µM) 103% | viability, T/C (second compound 1 µM, first compound 0.0316 µM) 101% | viability, T/C (second compound 1 µM, first compound 0.1 µM) 106% | viability, T/C (second compound 1 µM, first compound 0.316 µM) 90.3% | viability, T/C (second compound 1 µM, first compound 1 µM) 35.2% | viability, T/C (second compound 3.16 µM, first compound 0.00316 µM) 107% | viability, T/C (second compound 3.16 µM, first compound 0.01 µM) 97.5% | viability, T/C (second compound 3.16 µM, first compound 0.0316 µM) 88.9% | viability, T/C (second compound 3.16 µM, first compound 0.1 µM) 99.3% | viability, T/C (second compound 3.16 µM, first compound 0.316 µM) 47.5% | viability, T/C (second compound 3.16 µM, first compound 1 µM) 26.9% | viability, T/C (second compound 10 µM, first compound 0.00316 µM) 65.6% | viability, T/C (second compound 10 µM, first compound 0.01 µM) 59.4% | viability, T/C (second compound 10 µM, first compound 0.0316 µM) 45.6% | viability, T/C (second compound 10 µM, first compound 0.1 µM) 45.8% | viability, T/C (second compound 10 µM, first compound 0.316 µM) 35.2% | viability, T/C (second compound 10 µM, first compound 1 µM) 23.7%
> 1000 nM: IC50 (second compound 0.0316 µM) | IC50 (second compound 0.1 µM) | IC50 (second compound 0.316 µM)
